We go through one compound from ChEMBL document CHEMBL5727479, “Fused heteroaryl derivatives as orexin receptor antagonists” (2020).

This experiment deals with T1, Orexin receptor type 2 (Homo sapiens, UniProt O43614).
T1 sequence (O43614 whole entry): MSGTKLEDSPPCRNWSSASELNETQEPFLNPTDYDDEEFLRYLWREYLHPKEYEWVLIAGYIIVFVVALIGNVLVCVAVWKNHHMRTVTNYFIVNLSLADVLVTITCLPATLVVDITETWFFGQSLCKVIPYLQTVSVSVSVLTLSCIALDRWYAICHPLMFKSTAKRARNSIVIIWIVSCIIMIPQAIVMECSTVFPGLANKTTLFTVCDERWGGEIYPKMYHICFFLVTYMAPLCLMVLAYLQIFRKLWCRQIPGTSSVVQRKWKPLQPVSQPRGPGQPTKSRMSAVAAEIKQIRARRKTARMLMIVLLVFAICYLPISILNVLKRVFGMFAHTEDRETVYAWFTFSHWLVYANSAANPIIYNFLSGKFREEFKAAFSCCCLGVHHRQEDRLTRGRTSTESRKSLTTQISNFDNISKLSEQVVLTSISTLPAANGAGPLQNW
Put plainly: FLIPR Assay: In a typical experiment the OX1 and OX2 receptor antagonistic activity of the compounds of the present invention was determined in accordance with the following experimental method. For intracellular calcium measurements, Chinese hamster ovary (CHO) cells expressing the rat orexin-1 receptor or the human orexin-2 receptor, are grown in Iscove's modified DMEM containing 2 mM L-glutamine, […], 1% hypoxanthine-thymidine supplement, 100 U/ml penicillin, 100 μg/ml streptomycin and 10% heat-inactivated fetal calf serum (FCS). The cells are seeded at 20,000 cells/well into Becton-Dickinson black 384-well clear bottom sterile plates coated with poly-D-lysine. All reagents are from GIBCO-Invitrogen Corp. The seeded plates are incubated overnight at 37° C. and 5% CO2. Ala-6,12 human orexin-A as the agonist is prepared as a 1 mM stock solution in 1% bovine serum albumin (BSA) and diluted in assay buffer (HBSS containing 20 mM HEPES, 0.1% BSA and 2.5 mM probenecid, pH7.4) for use in the assay at a final concentration of 70 pM. Test compounds are prepared as 10 mM stock solution in DMSO, then diluted in 384-well plates, first in DMSO, then assay buffer. On the day of the assay, cells are washed 3 times with 100 μl assay buffer and then incubated for 60 min (37° C., 5% CO2) in 60 μl assay buffer containing […] Fluo-4AM ester, 0.02% pluronic acid, and 1% BSA. In kind it is cell-based.

One may read the IC50 as the concentration that inhibits the measured activity by half. As to `C[C@@H]1CC[C@@H](Sc2nccn3nccc23)CN1C(=O)c1ccccc1-n1nccn1`, the IC50 turned out to be 15.7 nM.
